Experiment [1] concerns cerebral cortical precursors of E15.5 rat embryos. The experiment can be described thus: [3H]thymidine incorporation (DNA synthesis) in cerebral hemispheres after transuterine intracerebroventricular injection. The format is in vivo. The following applies: vs vehicle. The protocol:
Transuterine intracerebroventricular injection. Intraventricular injection was done as described. […] Dye enhancement of the ventricles indicated successful injections.
Quantification. Newly synthesized DNA was measured after TCA precipitation. Tissues were homogenized in 10 volumes of distilled water. After reserving aliquots to assess total tissue [^3H]dT uptake, DNA was precipitated with 10% TCA, centrifuged, and washed twice in 10% TCA. Pellets were dissolved and counted along with aliquots by scintillation spectrometry.
On the technique in general: Incorporation of labelled thymidine or its analogues reports DNA synthesis.

Experiment [2] concerns VZ precursors of E15.5 rat cortex. From the text:
(§1) For BrdU immunohistochemistry, E15.5 and E18.5 tissues were fixed in 4% PFA, paraffin-embedded, and sectioned (4 μm) coronally. E20.5 tissues were perfusion-fixed in 2% PFA, cryoprotected, and sectioned at 15 μm. The tissues were immunostained. Then, the tissues were double-labeled with antibodies to neuron specific markers TuJ1 (1:200, Biogenesis, Poole, United Kingdom), tau (1:200, I. Fischer, Med. Coll. Penn.) and MAP2c (1:2000, I. Fischer) or glial markers, vimentin (1:4, Roche) and GFAP (1:1000, Sigma), visualizing with Texas Red for BrdU and FITC for phenotypic markers. TUNEL assay was done according to the manufacturer (Oncor, Gaithersburg, Md.) on sections adjacent to those used for BrdU.
(§2) Transuterine intracerebroventricular injection. Intraventricular injection was done as described. Following anesthesia (ketamine 30 mg per kg/xylazine 3 mg per kg) and laparotomy of E15.5 pregnant dams, 1 μl of vehicle or factors and 0.05% fast green was delivered into the embryonic lateral ventricle through the uterine wall, using drawn capillary pipettes. Dye enhancement of the ventricles indicated successful injections. After closure, dams were injected subcutaneously with markers of DNA synthesis, [^3H]dT (4 μCi/g, NEN) and BrdU (100 μg/g) at 3 h and sacrificed at 4 h. One embryonic hemisphere was assayed for [^3H]dT incorporation and the other for immunohistochemistry.
(§3) For labeling index, the analysis was done in the dorsolateral sector of 3 non-adjacent coronal cortex sections per brain, using a camera lucida (Zeiss, Thornwood, N.Y.) under 400× magnification. For E15.5 sections, BrdU(+) nuclei and total nuclei were scored within a 100 μm×100, μm sector based on the ventricular surface extending to the pial surface. BrdU(+) cells in the CP were counted in centrally located sectors extending 100 μm (E18.5 sections) or 200 μm (E20.5 sections) in the mediolateral dimension.

The test system of experiment [3] is BrdU-labeled precursors in the CP.
Text: as §1, §2, §3

Experiment [4] deals with cortical precursors in culture. The following applies: cited from earlier work.
For experiment [5], the target named is T1, PAC1 (Homo sapiens, UniProt P41586).
T1 sequence (P41586 21-468): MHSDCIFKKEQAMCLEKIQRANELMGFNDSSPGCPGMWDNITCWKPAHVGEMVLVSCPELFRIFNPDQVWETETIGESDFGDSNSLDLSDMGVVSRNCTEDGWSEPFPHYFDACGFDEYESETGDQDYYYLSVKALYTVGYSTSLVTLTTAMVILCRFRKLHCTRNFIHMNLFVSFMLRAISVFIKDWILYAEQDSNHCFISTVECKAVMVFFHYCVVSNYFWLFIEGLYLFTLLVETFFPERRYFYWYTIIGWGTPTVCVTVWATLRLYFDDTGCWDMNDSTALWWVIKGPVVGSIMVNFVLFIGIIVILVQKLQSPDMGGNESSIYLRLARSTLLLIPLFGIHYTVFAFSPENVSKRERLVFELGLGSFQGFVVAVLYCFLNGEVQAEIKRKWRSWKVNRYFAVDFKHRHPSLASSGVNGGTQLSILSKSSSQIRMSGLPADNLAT
The following applies: higher affinity than PACAP6-38; cited from earlier work.

Where [6] appears, read: injectant volume 1 μl ICV at E15.5, 4 h.

Several values for one entry are separate records, joined by “and”; a condition that tells them apart may be missing. Equal values may be shown once. Read-outs that look alike come from different tables or passages of the source. Where no end group is shown, it is not given here.

Take “Pituitary Adenylate Cyclase-Activating Polypeptide [PACAP]”: the “decrease of DNA synthesis, [3H]dT incorporation into cerebral hemispheres” value in experiment [1] (PACAP 10^-5 M, ICV into E15.5 rat lateral ventricle, four hours later) was found to be 24%. Further, in experiment [2] (4 hours after ICV injection at E15.5, n=6/group), the “Labeling Index (LI), BrdU(+) nuclei in VZ” value is on record as 26±1.3%. Besides, the “decrease of Labeling Index / mitotic labeling” value in experiment [2] (4 hours after ICV injection at E15.5, vs vehicle) was 25% and 26%. For the same compound, the “less mitotically labeled (BrdU+) cells in the CP” value is on record as 38% in experiment [3] (3 days (E18.5) after PACAP administration at E15.5) and 33% in experiment [3] (5 days (E20.5) after PACAP administration at E15.5). For the same compound, in experiment [4], the “effect on proliferative effects of mitogenic IGF-I, bFGF and EGF” value was “inhibited proliferative effects”.

For “PACAP6-38: specific PAC1 antagonist (FTDSYSRYRKQMAVKKYLAAVLGKRYKQRVKNK; ends and bridges not checked)”, the “% Stimulation of DNA synthesis ([3H]dT incorporation)” value (shortened to “% Stimulation of DNA synthesis”) in experiment [1] (setting [6]) came to 10±2.2%.

Consider `Nc1ncnc2c1ncn2[C@@H]1O[C@@H]2CO[P@@](O)(=S)O[C@H]2[C@H]1O` [Rp-cAMPS], for which the “% Stimulation of DNA synthesis” value in experiment [1] (setting [6]) is recorded as 28.3 ± 3.1 %.

On to “M65: newly defined PAC1 antagonist derived from sand fly peptide maxadilan”, for which the “% Stimulation of DNA synthesis” value in experiment [1] (setting [6]) is 14% and 13.4 ± 4.6 %; in experiment [1] (injectant volume 2 μl (twice the dose) ICV at E15.5, 4 h), 20% and 20.1 ± 7.0 %. The “affinity for PAC1 relative to PACAP6-38” value in experiment [5] was 6 fold.

(Values after patent US20070149439A1 (priority 2001, published 2007).)
